# Results as given in patent publication US20250312499A1, “KISSPEPTIN RECEPTOR (KISS1R) TARGETED THERAPEUTICS AND USES THEREOF” (priority 2024, published 2025).
# Numbered stars: 1 amine (or outer) side, 2 acyl side, 3 side chain; on linkers, the order of the positions; unused ones are H or OH. Square brackets hold non-standard residues; d marks the D form. Peptide text beside a SMILES is read from it. * marks the point of attachment. DOTA = O=C(O)CN1CCN(CC(=O)O)CCN(CC(=O)*)CCN(CC(=O)O)CC1; Ala(9-anthryl) = N[C@@H](Cc1c2ccccc2cc2ccccc12)C(=O)O; Gly(N-(3-F-4-Me-benzyl)) = Cc1ccc(CNCC(=O)*)cc1F; Gly(Nα-4-MeO-benzyl) = COc1ccc(CNCC(=O)*)cc1; Api(1-amidino) = N=C(N)N1CCC(N)(C(=O)O)CC1; Phe(4-CN) = N#Cc1ccc(C[C@H](N)C(=O)O)cc1; X1 = O=C(CN1CCC(N[*:1])CC1)[*:2]; 4Pal = N[C@@H](Cc1ccncc1)C(=O)O; 4Amb = NCc1ccc(C(=O)O)cc1; Octanoyl = CCCCCCCC(=O)*; Api = NC1(C(=O)O)CCNCC1; Ahx = NCCCCCC(=O)O; azaGly = NNC(=O)O
# Target: human kisspeptin receptor (Homo sapiens (Human), UniProt Q969F8)
# Sequence (Q969F8 whole entry): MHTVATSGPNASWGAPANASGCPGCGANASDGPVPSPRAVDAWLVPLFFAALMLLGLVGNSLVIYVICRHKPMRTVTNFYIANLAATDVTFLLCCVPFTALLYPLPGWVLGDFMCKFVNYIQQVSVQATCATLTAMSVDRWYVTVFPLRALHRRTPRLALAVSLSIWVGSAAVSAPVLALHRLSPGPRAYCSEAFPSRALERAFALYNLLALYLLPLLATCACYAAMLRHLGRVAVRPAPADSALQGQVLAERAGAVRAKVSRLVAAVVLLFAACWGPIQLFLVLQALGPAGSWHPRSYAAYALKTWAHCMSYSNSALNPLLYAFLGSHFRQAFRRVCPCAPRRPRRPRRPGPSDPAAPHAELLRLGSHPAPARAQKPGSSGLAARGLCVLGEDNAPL
# Assay: Human KISS1R binding assay (membrane competition binding)
# Details: 90 min at room temperature; competition with 0.2 nM [125I]-metastin (45-54); Flp-In T-Rex 293 kisspeptin membranes; metal complexes nonradioactive Ga, In, Lu; read-out: hKiSSR Binding Ki (90 min)
# Outline: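 Radioligand competition: 0.2 nM [125I]-metastin (45-54) displaced by test ligand (usually 0–10,000 nM) over 90 min at room temperature, pH 7.4 buffer with 0.1% BSA. Receptor source is crude membrane (5–10 μg) from tetracycline-induced Flp-In T-Rex 293 cells. Bound label filtered and counted; Ki from non-linear regression.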
row,Ki,Compound
1,< 10 nM,CC(C)C[C@H](NC(=O)NNC(=O)[C@H](Cc1ccccc1)NC(=O)[C@@H](NC(=O)[C@H](CC(N)=O)NC(=O)[C@H](Cc1c2ccccc2cc2ccccc12)NC(=O)[C@@H](Cc1ccc(O)cc1)NC(=O)CCCCCNC(=O)CN1CCN(CC(=O)O)CCN(CC(=O)O)CCN(CC(=O)O)CC1)[C@@H](C)O)C(=O)NC1(C(=O)N[C@@H](Cc2ccncc2)C(N)=O)CCN(C(=N)N)CC1 [Compound 222] ({DOTA-Ahx}-[dY][Ala(9-anthryl)]NTF[azaGly]L[Api(1-amidino)][4Pal]-NH2)
2,10 to 100 nM,CCCCCCCC(=O)N[C@@H](CCCCNC(=O)CN1CCN(CC(=O)O)CCN(CC(=O)O)CCN(CC(=O)O)CC1)C(=O)N[C@@H](CC(N)=O)C(=O)N[C@H](C(=O)N[C@@H](Cc1ccccc1)C(=O)NNC(=O)N[C@@H](CC(C)C)C(=O)NC1(C(=O)N[C@@H](Cc2ccncc2)C(N)=O)CCN(C(=N)N)CC1)[C@@H](C)O [Compound 226] (Octanoyl-K(DOTA)NTF[azaGly]L[Api(1-amidino)][4Pal]-NH2)
3,< 10 nM,Cc1ccc(CNCC(=O)N2CCC(NC(=O)[C@H](CC(C)C)NC(=O)NNC(=O)[C@H](Cc3ccccc3)NC(=O)[C@@H](NC(=O)CN3CCC(NC(=O)CN4CCN(CC(=O)O)CCN(CC(=O)O)CCN(CC(=O)O)CC4)CC3)[C@@H](C)O)(C(=O)N[C@@H](Cc3c[nH]c4ccccc34)C(N)=O)CC2)cc1F [Compound 233] ({DOTA}-[X1]TF[azaGly]L[Api](Gly(N-(3-F-4-Me-benzyl)))W-NH2)
4,< 10 nM,Cc1ccc(CNCC(=O)N2CCC(NC(=O)[C@H](CC(C)C)NC(=O)NNC(=O)[C@H](Cc3ccccc3)NC(=O)[C@@H](NC(=O)[C@H](CCC(=O)O)NC(=O)CN3CCC(NC(=O)CN4CCN(CC(=O)O)CCN(CC(=O)O)CCN(CC(=O)O)CC4)CC3)[C@@H](C)O)(C(=O)N[C@@H](Cc3c[nH]c4ccccc34)C(N)=O)CC2)cc1F [Compound 234] ({DOTA}-[X1]ETF[azaGly]L[Api](Gly(N-(3-F-4-Me-benzyl)))W-NH2)
5,< 10 nM,COc1ccc(CNCC(=O)N2CCC(NC(=O)[C@H](CC(C)C)NC(=O)NNC(=O)[C@H](Cc3ccccc3)NC(=O)[C@@H](NC(=O)[C@H](CC(N)=O)NC(=O)CCCCCNC(=O)CN3CCN(CC(=O)O)CCN(CC(=O)O)CCN(CC(=O)O)CC3)[C@@H](C)O)(C(=O)N[C@@H](Cc3ccccc3)C(N)=O)CC2)cc1 [Compound 235] ({DOTA-Ahx}-NTF[azaGly]L[Api](Gly(Nα-4-MeO-benzyl))F-NH2)
6,< 10 nM,COc1ccc(CNCC(=O)N2CCC(NC(=O)[C@H](CC(C)C)NC(=O)NNC(=O)[C@H](Cc3ccccc3)NC(=O)[C@@H](NC(=O)[C@H](CC(N)=O)NC(=O)[C@H](CCC(=O)O)NC(=O)CCCCCNC(=O)CN3CCN(CC(=O)O)CCN(CC(=O)O)CCN(CC(=O)O)CC3)[C@@H](C)O)(C(=O)N[C@@H](Cc3ccccc3)C(N)=O)CC2)cc1 [Compound 236] ({DOTA-Ahx}-ENTF[azaGly]L[Api](Gly(Nα-4-MeO-benzyl))F-NH2)
7,< 10 nM,COc1ccc(CNCC(=O)N2CCC(NC(=O)[C@H](CC(C)C)NC(=O)NNC(=O)[C@H](Cc3ccccc3)NC(=O)[C@@H](NC(=O)[C@H](CC(N)=O)NC(=O)[C@H](CCC(=O)O)NC(=O)CN3CCN(CC(=O)O)CCN(CC(=O)O)CCN(CC(=O)O)CC3)[C@@H](C)O)(C(=O)N[C@@H](Cc3ccccc3)C(N)=O)CC2)cc1 [Compound 237] ({DOTA}-ENTF[azaGly]L[Api](Gly(Nα-4-MeO-benzyl))F-NH2)
8,< 10 nM,Cc1ccc(CNCC(=O)N2CCC(NC(=O)[C@H](CC(C)C)NC(=O)NNC(=O)[C@H](Cc3ccccc3)NC(=O)[C@@H](NC(=O)[C@H](CC(N)=O)NC(=O)[C@H](CCC(=O)O)NC(=O)CCCCCNC(=O)CN3CCN(CC(=O)O)CCN(CC(=O)O)CCN(CC(=O)O)CC3)[C@@H](C)O)(C(=O)N[C@@H](Cc3c[nH]c4ccccc34)C(N)=O)CC2)cc1F [Compound 238] ({DOTA-Ahx}-ENTF[azaGly]L[Api](Gly(N-(3-F-4-Me-benzyl)))W-NH2)
9,> 100 nM,COc1ccc(CNCC(=O)N2CCC(NC(=O)[C@@H](CC(C)C)NC(=O)NNC(=O)[C@H](Cc3ccccc3)NC(=O)[C@@H](NC(=O)[C@H](CC(N)=O)NC(=O)[C@H](CCC(=O)O)NC(=O)CN3CCN(CC(=O)O)CCN(CC(=O)O)CCN(CC(=O)O)CC3)[C@@H](C)O)(C(=O)N[C@@H](Cc3ccccc3)C(N)=O)CC2)cc1 [Compound 239] ({DOTA}-ENTF[azaGly][dL][Api](Gly(Nα-4-MeO-benzyl))F-NH2)
10,< 10 nM,Cc1ccc(CNCC(=O)N2CCC(NC(=O)[C@H](CC(C)C)NC(=O)NNC(=O)[C@H](Cc3ccccc3)NC(=O)[C@@H](NC(=O)[C@H](CC(N)=O)NC(=O)c3ccc(CNC(=O)CN4CCN(CC(=O)O)CCN(CC(=O)O)CCN(CC(=O)O)CC4)cc3)[C@@H](C)O)(C(=O)N[C@@H](Cc3ccc(C#N)cc3)C(N)=O)CC2)cc1F [Compound 240] ({DOTA-4Amb}-NTF[azaGly]L[Api](Gly(N-(3-F-4-Me-benzyl)))[Phe(4-CN)]-NH2)
11,< 10 nM,Cc1ccc(CNCC(=O)N2CCC(NC(=O)[C@H](CC(C)C)NC(=O)NNC(=O)[C@H](Cc3ccccc3)NC(=O)[C@@H](NC(=O)[C@H](CC(N)=O)NC(=O)[C@H](CCC(=O)O)NC(=O)c3ccc(CNC(=O)CN4CCN(CC(=O)O)CCN(CC(=O)O)CCN(CC(=O)O)CC4)cc3)[C@@H](C)O)(C(=O)N[C@@H](Cc3ccc(C#N)cc3)C(N)=O)CC2)cc1F [Compound 241] ({DOTA-4Amb}-ENTF[azaGly]L[Api](Gly(N-(3-F-4-Me-benzyl)))[Phe(4-CN)]-NH2)
12,< 10 nM,Cc1ccc(CNCC(=O)N2CCC(NC(=O)[C@H](CC(C)C)NC(=O)NNC(=O)[C@H](Cc3ccccc3)NC(=O)[C@@H](NC(=O)[C@H](CC(N)=O)NC(=O)[C@@H](CCC(=O)O)NC(=O)c3ccc(CNC(=O)CN4CCN(CC(=O)O)CCN(CC(=O)O)CCN(CC(=O)O)CC4)cc3)[C@@H](C)O)(C(=O)N[C@@H](Cc3ccc(C#N)cc3)C(N)=O)CC2)cc1F [Compound 242] ({DOTA-4Amb}-[dE]NTF[azaGly]L[Api](Gly(N-(3-F-4-Me-benzyl)))[Phe(4-CN)]-NH2)
13,< 10 nM,Cc1ccc(CNCC(=O)N2CCC(NC(=O)[C@H](CC(C)C)NC(=O)NNC(=O)[C@H](Cc3ccccc3)NC(=O)CN3CCC(NC(=O)CN4CCN(CC(=O)O)CCN(CC(=O)O)CCN(CC(=O)O)CC4)CC3)(C(=O)N[C@@H](Cc3ccc(C#N)cc3)C(N)=O)CC2)cc1F [Compound 244] ({DOTA}-[X1]F[azaGly]L[Api](Gly(N-(3-F-4-Me-benzyl)))[Phe(4-CN)]-NH2)
14,< 10 nM,Cc1ccc(CNCC(=O)N2CCC(NC(=O)[C@H](CC(C)C)NC(=O)NNC(=O)[C@H](Cc3ccccc3)NC(=O)CN3CCC(NC(=O)CN4CCN(CC(=O)O)CCN(CC(=O)O)CCN(CC(=O)O)CC4)CC3)(C(=O)N[C@@H](Cc3ccccc3)C(N)=O)CC2)cc1F [Compound 245] ({DOTA}-[X1]F[azaGly]L[Api](Gly(N-(3-F-4-Me-benzyl)))F-NH2)
15,10 to 100 nM,Cc1ccc(CNCC(=O)N2CCC(NC(=O)[C@H](CC(C)C)NC(=O)NNC(=O)[C@H](Cc3ccccc3)NC(=O)CN3CCC(NC(=O)CN4CCN(CC(=O)O)CCN(CC(=O)O)CCN(CC(=O)O)CC4)CC3)(C(=O)N[C@@H](Cc3ccncc3)C(N)=O)CC2)cc1F [Compound 246] ({DOTA}-[X1]F[azaGly]L[Api](Gly(N-(3-F-4-Me-benzyl)))[4Pal]-NH2)
